Test results taken from patent US11931352B2, “Combination therapies for treating cancer” (UNIVERSITY OF VIRGINIA PATENT FOUNDATION, priority 2018, dated 2024).

Assays:
[1] = relative to the methoxy compound; cited from earlier work
[2] = tested on: RING1B; assay: Time-course ChIP-qPCR for RING1B at E3 in ME-1 cells; type: cell-based, human; details: by 5 hr of AI-10-49 treatment
Procedure: (§1) Chromatin Immunoprecipitation (ChIP). […] Cross-linking of proteins to DNA was accomplished by the addition of 1% formaldehyde for 10 min to cultured cells at room temperature. After neutralization with glycine, cells were lysed in lysis buffer with protease inhibitors and samples were sonicated to an average DNA length of 200-400 bp with a bioruptor (Diagenode). After sonication, the chromatin was immunoprecipitated with 10 μg of antibody of interest at 4° C. overnight. Antibody bound complexes were isolated with Dynabeads (Life Technologies). DNA was purified using phenol-chloroform isoamyl-alcohol method. Immunoprecipitated DNA was analyzed by sequencing (explained below) or qPCR on a StepOnePlus System (Applied Biosystems) with Power SYBR® Green PCR Master Mix and calculated as % of input.

[3] = tested on: non-inv(16) AML cells (U937, K562, Jurkat, Kasumi-1 and THP-1); assay: MYC transcript levels in non-inv(16) AML cell lines; type: cell-based; details: 1 μM AI-10-49, 6 hrs
Procedure: (§2) Quantitative RT-PCR Analysis. mRNA was prepared with a PureLink® RNA Mini Kit (Life Technologies) and cDNA synthesis was performed with a SuperScript III kit (Life Technologies), per the manufacturers' instructions. Quantitative PCR analysis was conducted on an Applied Biosystems StepOnePlus System with Power SYBR® Green PCR Master Mix (Applied Biosystems). Expression levels were determined with the ΔCt method and normalized to ([…] and/or GAPDH. Sequences of primers are provided in the Key Resource Table.

[4] = tested on: lineage negative mouse Cbfb+/MYH11 leukemic cells; assay: MYC expression in mouse Cbfb+/MYH11 leukemic cells; type: cell-based; details: 5 μM AI-10-49, 24 hrs
Procedure: (§3) Murine bone marrow cells were isolated by crushing femur and tibia of the hind legs of mice. Wild type mouse bone marrow cells were cultured in StemSpan Serum-Free Expansion Medium (SFEM, Stemcell Technologies), 100 U/ml Penicillin and […] Streptomycin (Life Technologies) supplemented with 6 ng/ml murine recombinant IL3, 10 ng/ml murine recombinant IL6, and 50 ng/ml murine recombinant SCF. Cbfb^+/MYH11 and Nras^+/G120 leukemic bone marrow and spleen cells were cultured in StemSpan Serum-Free Expansion Medium (SFEM, Stemcell Technologies), 100 U/ml Penicillin and […] Streptomycin (Life Technologies) supplemented with 10 ng/ml murine recombinant IL3, and 50 ng/ml murine recombinant SCF.
as §2

[5] = tested on: ME-1 cells; assay: RNA-sequencing expression analysis of AI-10-49 treated ME-1 cells; type: cell-based, human; details: AI-10-49 1 μM, 6 hrs
Procedure: RNA Sequencing. The RNA for RNA-sequencing was prepared with a PureLink® RNA Mini Kit. RNA concentration was quantified with a NanoDrop spectrophotometer (Thermo Scientific). RNA integrity was evaluated with a 2100 Bioanalyzer with an RNA 6000 kit (Agilent Technologies). Libraries were prepared with a TruSeq RNA library preparation kit (Illumina). Libraries were quantified by qPCR, normalized and pooled before sequencing with paired-end 90-bp reads on an Illumina HiSeq2000 in triplicate.
RNA-seq data analysis. Raw reads from RNA-seq experiment were assessed for their quality using fastqc, followed by alignment to the reference human genome (hg19) using tophat v 2.0.9, bowtie2/2.1.0 (Trapnell et al., 2009) with the default setting except the following parameters: -b2-very-sensitive-mate-inner-dist 160-mate-std-dev 80-no-coverage-search-transcriptome-index=hg19_knownGene_transcriptome_data. Differential gene expression analysis was performed by cufflinks v 2.2.0 (Trapnell et al., 2012).

[6] = tested on: RUNX1; assay: ChIP-qPCR for RUNX1 at MYC enhancers in ME-1 cells; type: cell-based, human
Procedure: as §1

[7] = tested on: H3K27ac; assay: ChIP-seq for H3K27ac in ME-1 cells; type: cell-based, human; details: AI-10-49 1 μM, 6 hrs; DMSO 31,102
Procedure: (§4) Chromatin Immunoprecipitation (ChIP). ME-1 cells were treated with DMSO or AI-10-49 (1 μM) for six hrs. Cross-linking of proteins to DNA was accomplished by the addition of 1% formaldehyde for 10 min to cultured cells at room temperature. After neutralization with glycine, cells were lysed in lysis buffer with protease inhibitors and samples were sonicated to an average DNA length of 200-400 bp with a bioruptor (Diagenode). After sonication, the chromatin was immunoprecipitated with 10 μg of antibody of interest at 4° C. overnight. Antibody bound complexes were isolated with Dynabeads (Life Technologies). DNA was purified using phenol-chloroform isoamyl-alcohol method. Immunoprecipitated DNA was analyzed by sequencing (explained below) or qPCR on a StepOnePlus System (Applied Biosystems) with Power SYBR® Green PCR Master Mix and calculated as % of input.
(§5) Chromatin immunoprecipitation followed by sequencing (ChIP-seq). DNA concentration was quantified with a NanoDrop spectrophotometer (Thermo Scientific). DNA integrity was evaluated with a 2100 Bioanalyzer (Agilent Technologies). […] Libraries were quantified by qPCR, normalized and pooled before sequencing with single-end 50-bp reads on an Illumina HiSeq4000).
(§6) ChIP-seq data analysis. ChIP-seq reads were aligned to the human genome (hg19) with Bowtie2 v 2.1.0 (Langmead and Salzberg, 2012) with the standard default settings. […]

[8] = tested on: ME-1 cells; assay: Cell viability (MTT) dose response and synergy analysis in ME-1 cells; type: cell-based, human; details: ME-1 cells treated 72 hr, MTT assay
Procedure: Cell Viability Assay. Cell viability was estimated using the MTT kit, CellTiter 96® AQueous One Solution (Promega, PA). 20,000 cells/well were seeded in triplicate into 96-well plates. After 24-72 hrs, 20 μl of MTT reagent was added to wells containing cells or medium (blank), and absorption at 490 nm was measured using SpectraMax M5 plate reader (Molecular Devices).
The IC50 was estimated using the drc package in R with lower bound set to 0 (Ritz et al., 2015). CIs were calculated using the formula a/A+b/B. Synergisms, additive effect and antagonism of combine treatment assays are defined as CI<1, CI=1 and CI>1 respectively, utilizing the Chou-Talalay Method (Chou, 2010).

[9] = tested on: RUNX1; assay: ChIP-seq for RUNX1 in ME-1 cells; type: cell-based, human; details: AI-10-49 1 μM, 6 hrs
Procedure: as §4, §5, §6

[10] = tested on: MYC; assay: MYC transcript levels by qRT-PCR in ME-1 cells; type: cell-based, human; details: for MYC transcript and protein levels: single agent treatment of ME-1 cells
Procedure: as §2

[11] = tested on: human cord blood CD34+ cells; assay: MYC expression in normal human CD34+ hematopoietic cells; type: cell-based; details: 5 μM AI-10-49, 24 hrs
Text: (§7) Primary Hematopoietic Cell Cultures. Human cord blood samples were collected from the UMASS Memorial Medical Center, and CD34^+ cells were isolated using the CD34 Microbead kit (Miltenyi Biotec). The use of the cord blood samples for research purposes was approved by the Ethics Committee of the University of Massachusetts Medical School. Human AML samples were received from Martin Peter Carroll (University of Pennsylvania) and Carsten Mueller-Tidow (University of Heidelberg, Germany). Hematopoietic CD34^+ cells were isolated from human AML bone marrow samples using the CD34 Microbead kit (Miltenyi Biotec). All patients gave written consent for use of their samples. […]
as §2

[12] = tested on: wild type lineage negative mouse bone marrow cells; assay: MYC expression in normal mouse bone marrow cells; type: cell-based; details: 5 μM AI-10-49, 24 hrs
Procedure: as §3, §2

[13] = tested on: CBFβ-SMMHC-expressing (Nras/CM) leukemia cells; assay: Leukemia transplantation study in mice (leukemia latency); type: in vivo, mouse; details: i.p. from day 5; AI-10-49 200 mg/kg/day for 10 days, JQ1 50 mg/kg/day for 21 days
Procedure: Leukemia transplantation studies in mice. […] AI-10-49 was administered at 200 mg/kg/day from day 5 to day 14. […] Mice were sacrificed after visible characteristics of AML, including reduced motility and grooming activity, hunched back, and pale paws (anemia). Leukemic cells were extracted from spleen and analyzed at time of euthanasia as previously described (Kuo et al., 2006).
Statistical Analysis. Analysis was performed using R, a system for statistical computation and graphics (Ihaka and Gentleman, 1996). For mouse leukemia survival analysis, the leukemia latency and P-values were estimated using Survival package in R. P-value between groups was calculated using log-rank test. Relative cell viability, measured as the proportion of viable cells, was first arcsine-transformed to homogenize the variance. […] One-way ANOVA was performed followed by predetermined contrasts for FIGS. 2A, 2B, 2C, 2D, 2E, 4D and 7C. Two-way ANOVA was performed followed by Tukey's honest significance test for FIG. 3C. To compare the response curves (FIGS. 3A & 3D), an indicator variable was created to distinguish the two-drug treatment and one of the single-drug treatments. Two-way ANOVA was performed to compare a single-drug treatment and the two-drug treatment.

[14] = tested on: MYC; assay: MYC protein levels by immunoblot in ME-1 cells; type: cell-based, human; details: 0.1 μM and greater concentrations, 6 hrs
Procedure: Immunoblotting. ME-1 cells were lysed in modified RIPA buffer (50 mM Tris pH7.5, 150 mM NaCl, 1% NP40, 0.25% sodium deoxycholate and 1 mM EDTA) with phosphatase inhibitor (Sigma) and protease inhibitors (Millipore) for 15 min in ice followed by centrifugation. Nuclear and cytoplasmic fractions were isolated using Subcellular Protein Fractionation Kit (Thermo Fisher Scientific) according to the manufacturer's instructions. Protein concentrations were determined with the Biorad Protein Assay (Biorad). Proteins were separated on precast 8-12% Mini Protean TGX gels at 60-80 V using the Mini Protean electrophoresis system and were blotted onto PVDF membrane at 100V for 90 min in a Mini Trans-Blot Cell. All antibodies were used as recommended by the manufacturer and mentioned in Key Resource Table. Relative band intensities were quantified using ImageJ software.

[15] = tested on: human primary inv(16) leukemic CD34+ cells; assay: MYC expression in human primary inv(16) AML cells; type: cell-based; details: 5 μM AI-10-49, 24 hrs
Text: as §7, §2

[16] = molecular target: T1, CBFβ (Homo sapiens, UniProt Q13951); details: cited from earlier work
T1 sequence (Q13951 1-182): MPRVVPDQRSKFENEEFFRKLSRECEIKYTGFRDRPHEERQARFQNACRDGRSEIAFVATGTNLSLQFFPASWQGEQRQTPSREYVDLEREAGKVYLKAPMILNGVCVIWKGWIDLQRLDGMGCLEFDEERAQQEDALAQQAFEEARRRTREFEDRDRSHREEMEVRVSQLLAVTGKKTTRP

[17] = AI-10-49 versus DMSO, ME-1 cells

FC(F)(F)Oc1ccc2[nH]c(-c3ccccn3)nc2c1 [A-10-47, 2-(pyridin-2-yl)-5-(trifluoromethoxy)-1H-benzo[d]imidazole]
metabolic stability [1]: enhanced metabolic stability

FC(F)(F)Oc1ccc2[nH]c(-c3ccc(OCCOCCOc4ccc(-c5nc6cc(OC(F)(F)F)ccc6[nH]5)nc4)cn3)nc2c1 [AI-10-49]
RING1B occupancy at E3 [2]: 90%
repression of MYC transcript levels [3]: not in non-inv(16) AML cell lines
MYC expression [4]: reduced
E2F1 levels repressed (RNA-seq) [5]: 3 fold
MYC levels repressed (RNA-seq) [5]: over 10 fold
RUNX1 peak increase at BDME-E3 [6, 17]: 8 fold
RUNX1 peak increase at E5 [6, 17]: 1.8 fold
RUNX1 peak increase at ME1 [6, 17]: 5 fold
RUNX1 peak increase at ME2 [6, 17]: 3 fold
RUNX1 occupancy at E3 ([6]; time course, by 5 hr of AI-10-49 treatment): 90%
H3K27ac positive peaks [7]: 24,157 peaks
LD50 range at 95% confidence intervals [8]: 0.398 to 0.537 mM
increase in RUNX1 binding to target regulatory elements ([9]; versus DMSO): 7 fold
RUNX1 binding sites ([9]; DMSO 991): 6,652 sites
repression of MYC transcript levels ([10]; 1 uM AI-10-49, 6 hrs, ME-1 cells): 10 fold
MYC transcript and protein levels [10]: readily reduced
MYC expression [11]: not affected
MYC expression [12]: not affected
median latency of leukemia [13]: 39 days
MYC protein levels depleted [14]: approximately 20 fold
MYC expression [15]: reduced
effect on CBFβ function [16]: minimal effect

Cc1sc2c(c1C)C(c1ccc(Cl)cc1)=N[C@@H](CC(=O)OC(C)(C)C)c1nnc(C)n1-2 [JQ1, reference compound]
MYC transcript and protein levels [10]: readily reduced
median latency of leukemia [13]: 32 days
